Test results from patent US11708381B2, “Inhibitors of androgen receptor signaling” (XAVIER UNIVERSITY OF LOUISIANA, priority 2016, dated 2023).
Read-outs that look alike come from different tables or passages of the source.

Tests used:
Assay type in all cases: cell-based
LNCaP95 cells = experiment: Antiproliferative activity, resazurin assay, LNCaP95 cells; details: enzalutamide-resistant LNCaP95 cells, 72 h, cell proliferation, read-out: IC50 (μM) LCaP95
Description: (§1) LNCaP95 and 22RV1 are prostate cancer cell lines that express high level of AR-V7 and other AR-Vs, and are enzalutamide-resistant. LNCaP95 cells were maintained in RPMI1640 medium with charcoal-stripped serum (CSS). 22Rv1 cells were maintained in RPMI1640 medium with 10% FBS. Cells were seeded in 96-well plates (5×10^3 cells/well) containing 50 μL growth medium for 24 hrs. After medium removal, 100 μL fresh medium containing individual compound at different concentrations was added to each well and incubated at 37° C. for 72 h. Then 20 μL of resazurin was added for 2 h before recording fluorescence at 560 nm (excitation) and 590 nm (emission) using a Victor microtiter plate fluorometer (Perkin-Elmer, USA). The IC50 was defined as the compound concentration required for inhibiting cell proliferation by 50%, in comparison with cells treated with the maximum amount of DMSO (0.25%) and considered as 100% viability.

22RV1 cells = experiment: Antiproliferative activity, resazurin assay, 22RV1 cells; details: for Inhibitory rate at 10^−6 M in 22RV1 cells: 72 h incubation; for IC50: enzalutamide-resistant 22RV1 cells, 72 h, cell proliferation
Description: as §1

AR [1] = experiment: Downregulation of AR in 22RV1 cells; details: 22RV1, enzalutamide-resistant prostate cancer cell line (FIG. 11)
AR [2] = experiment: Downregulation of AR in LNCaP95 cells; details: LNCaP95, enzalutamide-resistant prostate cancer cell line (FIG. 10)
AR-V7 [3] = experiment: Downregulation of AR-V7 in LNCaP95 cells; details: LNCaP95, enzalutamide-resistant prostate cancer cell line (FIG. 10)
AR-V7 [4] = experiment: Downregulation of AR-V7 in 22RV1 cells; details: 22RV1, enzalutamide-resistant prostate cancer cell line (FIG. 11)

## O=C(Nc1ccc([N+](=O)[O-])cc1F)c1cc(F)ccc1O
LNCaP95 cells; LNCaP-95
  IC50: 0.206 µM
22RV1 cells
  Inhibitory rate at 10^−6 M in 22RV1 cells: 43.9%
22RV1 cells; Homo sapiens
  IC50: 0.244 µM

## N#Cc1ccc(NC(=O)c2cc(F)ccc2O)c(F)c1
LNCaP95 cells; LNCaP-95
  IC50: 0.397 µM
22RV1 cells
  Inhibitory rate at 10^−6 M in 22RV1 cells: 55.3%
22RV1 cells; Homo sapiens
  IC50: 0.414 µM

## Niclosamide [reference compound]
LNCaP95 cells
  IC50: 0.372 µM
22RV1 cells
  Inhibitory rate at 10^−6 M in 22RV1 cells: 51.3%
  IC50: 0.284 µM
AR [1]
  downregulation of AR: dose-dependent downregulation

## O=C(Nc1ccc(C(F)(F)F)cc1Cl)c1cc(F)ccc1O
LNCaP95 cells; LNCaP-95
  IC50: 0.148 µM
22RV1 cells
  Inhibitory rate at 10^−6 M in 22RV1 cells: 14.5%
22RV1 cells; Homo sapiens
  IC50: 0.135 µM

## O=C(Nc1ccc(C(F)(F)F)c(C(F)(F)F)c1)c1cc(F)ccc1O [ARi 4]
AR [2]
  downregulation of AR: dose-dependent downregulation
AR-V7 [3]
  downregulation of AR-V7: dose-dependent downregulation
AR [1]
  downregulation of AR: dose-dependent downregulation
AR-V7 [4]
  downregulation of AR-V7: dose-dependent downregulation

## O=C(Nc1ccc(C(F)(F)F)cc1F)c1cc(F)ccc1O
LNCaP95 cells; LNCaP-95
  IC50: 0.152 µM
22RV1 cells
  Inhibitory rate at 10^−6 M in 22RV1 cells: 12.4%
22RV1 cells; Homo sapiens
  IC50: 0.121 µM

## O=C(Nc1ccc(C(F)(F)F)cc1F)c1cc(F)c(F)cc1O
LNCaP95 cells; LNCaP-95
  IC50: 0.199 µM
22RV1 cells
  Inhibitory rate at 10^−6 M in 22RV1 cells: 52.7%
22RV1 cells; Homo sapiens
  IC50: 0.382 µM

## N#Cc1cc(NC(=O)c2cc(F)ccc2O)ccc1C(F)(F)F
LNCaP95 cells; LNCaP-95
  IC50: 0.161 µM
22RV1 cells
  Inhibitory rate at 10^−6 M in 22RV1 cells: 21.8%
22RV1 cells; Homo sapiens
  IC50: 0.195 µM

## O=C(Nc1ccc(C(F)(F)F)c(C(F)(F)F)c1)c1cc(F)ccc1O [drawing 30]
LNCaP95 cells; LNCaP-95
  IC50: 0.13 µM
22RV1 cells
  Inhibitory rate at 10^−6 M in 22RV1 cells: 15.7%
